Measurements: patent US8822206B2, “Device for high-throughput stimulation, immunostaining, and visualization of single cells” (The Johns Hopkins University, priority 2005, dated 2014)

Tested on: NIH3T3 mouse fibroblasts
Experiment: Cell stimulation and anti-p65 immunofluorescence staining in the microfluidic device
Format: cell-based
Settings: NIH3T3 mouse fibroblasts in device and on control slides; 10 ng/ml mouse TNF-alpha in media, 10 minutes stimulation
Source text: The device was fabricated as described in Example 1. The device was filled with sterile 0.1% gelatin with all of the valves open through an inlet port 11 to coat the parallel fluid channels to promote cell adhesion. Valves were primed with filtered, distilled water. Alternatively, filling may be done with the ports closed as trapped air can be pushed out of the gas-permeable PDMS with hydrostatic pressure. The device was flushed with […] the coating agent. Well-separated NIH3T3 mouse fibroblasts at a concentration of about 9 million cells per ml were introduced into the parallel fluid channels through an inlet port and the device was transferred to a standard 5% CO2, 37° C. cell culture incubator for 3-4 hours to allow the cells to adhere to the glass bottom of the parallel fluid channels.
Using the multiplexer to control flow through the reaction units, a selection of valves were closed to allow for exposure of only a portion of the cells to a stimulant. A syringe containing a solution of 10 ng/ml of mouse TNF-alpha in media was attached to an inlet port, and cells were stimulated, or not, for 10 minutes. […] After secondary antibody staining and washing with DPBS, cells were overlaid with mounting media or other antifade agent to minimize photobleaching, and imaged using fluorescence microscopy. […]

For TNF-alpha, the “localization of p65 (anti-p65 immunofluorescence)” value was “localization of p65 to the nucleus”.
